Test results: publication PMC8611018, “Apelin-13 in septic shock: effective in supporting hemodynamics in sheep but compromised by enzymatic breakdown in patients” (Scientific Reports, 2021)

What was measured:
[1] = test system: sheep APJ; assay: BRET assay for β-arrestin-2 recruitment in HEK293 cells expressing sheep APJ; assay type: cell-based, sheep (Ovis aries); details: BRET2, HEK293 cells with sheep APJ, 30 min stimulation at 37 °C, n = 3
Description: (§1) BRET experiments were performed as previously described. In brief, HEK293 cells were transfected with plasmids encoding sheep APJ, Gαi1-RlucII ([…]β1 (from cDNA.org) (for the BRET-based Gαi1 activation assay) or encoding sheep APJ-GFP10 and RlucII-β-arrestin2 (for the BRET-based β-arrestin-2 recruitment assay)[50]. To perform the BRET assays, 50,000 cells/well were transferred into white 96-well plates (BD Bioscience, Mississauga, Canada) and incubated at 37 °C overnight. […] After stimulation, 5 μM coelenterazine 400A was added to each well, and the plate was read on a GeniosPro plate reader using the BRET2 filter set (Tecan, Austria). The BRET2 ratio was calculated as […].

[2] = test system: sheep with fecal peritonitis-induced septic shock; assay: Hemodynamic and renal dose-response to infusion in sheep with fecal peritonitis-induced septic shock; assay type: in vivo
Description: The day before surgery, autologous stool was retrieved for treatment of the sheep selected for fecal peritonitis induction and mixed overnight in 0.9% normal saline (NS) and 5% D-glucose at 37 °C. The animals were fasted overnight. On the morning of the day of surgery, sheep received premedication to ease animal handling and intubation (i.e., intramuscular injections of 0.1 mg/kg atropine and 10 mg/kg ketamine) before routing to the operating room for insertion of an external jugular vein catheter and administration of a 500 mL bolus of Ringer’s lactate (RL). Sheep were then continuously infused with RL (3 mL/kg/h) and 5% D-glucose (2 mL/kg/h). Tracheal intubation (7–8 Fr) was performed in a caddy under isoflurane (1–2%) mask inhalation and by an anterior approach. Sheep were then placed in the supine position on heating pads before ventilator connection (Aestiva 15, Datex-Ohmeda, USA). […]
(§2) Baseline hemodynamic parameters and vital sign measurements (HR: heart rate, MAP: mean arterial pressure, SVR: systemic vascular resistance, CVP: central venous pressure, PAOP: pulmonary artery occlusion pressure and wedge pressure), dP/dt max and min, LV end-systolic pressure (LVESP), CO, stroke volume (SV), GEDV, and extravascular lung water (EVLW) were then recorded. Blood temperature, baseline central venous O2 saturation (ScvO2), and arterial blood gas (RapidLab® 348, Siemens Healthcare Diagnostics, Montreal, Qc, Canada) and lactate levels (Lactate Plus, Nova Biomedical, Waltham, MA, USA) were also monitored. A slightly modified sheep SOFA[46] score was calculated after reached shock criteria defining the “shock” time point and before euthanasia named the “final” time points, defined as a MAP below 65 mmHg for level 1 of the cardiovascular system assessment and assuming a constant level 3 of the central nervous system (Glasgow score 6–9) at “shock”. […]
After 2 g/kg autologous stool slurry was injected into both intra-peritoneal (i.p.) tubes, RL and 5% D-glucose infusions were stopped, and all the above parameters were monitored every 30 min. […]

[3] = test system: healthy sheep; assay: Hemodynamic and diuretic dose-response to infusion in healthy sheep; assay type: in vivo
Description: This study was approved by our institutional ethics review board (CFPA: Comité Facultaire de Protection des Animaux, #023-18BR). Thirty-six male Canadian Arcott sheep (33 ± 3 kg, 3 to 4 months old;) were included in this study according to the Animal Research: Reporting of In Vivo Experiments (ARRIVE) guidelines and received care in compliance with the Canadian Council of Animal Care and National Institutes of Health (NIH) guidelines. Animals were housed for at least 48 h before the experiment in dedicated accommodations and bedding.
The day before surgery, autologous stool was retrieved for treatment of the sheep selected for fecal peritonitis induction and mixed overnight in 0.9% normal saline (NS) and 5% D-glucose at 37 °C. The animals were fasted overnight. On the morning of the day of surgery, sheep received premedication to ease animal handling and intubation (i.e., intramuscular injections of 0.1 mg/kg atropine and 10 mg/kg ketamine) before routing to the operating room for insertion of an external jugular vein catheter and administration of a 500 mL bolus of Ringer’s lactate (RL). […]
as §2

[4] = Apelinergic stability in human plasma; assay type: in vitro ADME; details: 27 μL plasma + 6 μL 1 mM aqueous peptide, 37 °C, 0, 0.5, 1, 2, 4, 6 h, UPLC-MS, mean ± SEM
Description: (§3) Additional extraction on […] column (Phenomenex, Torrance, CA, USA) with overnight freeze-drying was mandatory for samples used for ELA measurements. […] LS-F25717; […] ELA was quantified using a commercially available ELISA kit (Peninsula Laboratories International; S-1508; CA, USA) with a measurement range of 0-100 ng/mL. […] Proteolytic degradation was stopped by adding 140 μL of 50% acetonitrile, 50% ethanol, and 0.25 mM N, N-dimethylbenzamide at 0, 0.5, 1, 2, 4, or 6 h. […] Next, the reaction mixture was diluted with 80 μL of water and analyzed overnight with an Acquity class H ultra-performance liquid chromatography-mass spectrometry (UPLC-MS) system from Waters (Milford, MA, USA) (column: Acquity UPLC CSH C18, 2.1 mm × 50 mm, packed with 1.7 μm particles). Results were expressed as a percentage of the initial zero-time spike area.

[5] = test system: sheep APJ; assay: BRET assay for Gαi1 activation in HEK293 cells expressing sheep APJ; assay type: cell-based, sheep (Ovis aries); details: BRET2, HEK293 cells with sheep APJ, 5 min stimulation at 37 °C, n = 3
Description: as §1

[6] = test system: sheep APJ; assay: Competitive radioligand binding with [125I]-(pyr1)Apelin-13 on HEK293 cells expressing sheep APJ; design: species or system sheep (Ovis aries); details: HEK293 cells with HA-tagged sheep APJ, 0.2 nM [125I]-(pyr1)APLN-13, 1 h at room temperature, n = 3; human APLN-13 compared with human ELA
Source text: The sequence of the apelin receptor was synthetized with gBlocks Gene Fragments (Integrated DNA Technologies, USA) and subcloned into […]1 (a modified vector in which we replaced the YFP sequence with that for two HA tags) with an NEBuilder HiFi DNA Assembly Cloning Kit (New England Biolabs, MA, USA). The Ovis aries APJ sequence was obtained from the RefSeq database (XM_027979777.1). […] Thermo Scientific Pierce, Canada)[49]. […] The γ emission was quantified using a γ-counter 1470 Wizard from PerkinElmer (Waltham) (80% efficiency). […] All binding data were calculated and plotted using GraphPad Prism 8 (La Jolla, CA) and represent the mean ± SEM of three replicates.

[7] = Apelinergic stability in sheep plasma; assay type: in vitro ADME; details: sheep plasma of baseline and shock time points (n = 18); 27 μL plasma + 6 μL 1 mM aqueous peptide, 37 °C, 0 to 6 h, UPLC-MS
Description: as §3

half-life ([4]; plasma of patients with sepsis/septic shock (n = 22)): 1.15 ± 0.2 h
half-life ([4]; plasma, plasma of healthy volunteers (n = 10)): 4.3 ± 0.75 h
plasma stability (residual percentage of non-degraded peptide) [7]: unaffected
Compound: CSCC[C@H](NC(=O)[C@@H](NC(=O)[C@H](CC(C)C)NC(=O)[C@H](CC(N)=O)NC(=O)[C@@H](NC(=O)[C@@H]1CCCN1C(=O)[C@H](CCCNC(=N)N)NC(=O)[C@@H](N)CCC(N)=O)C(C)C)[C@@H](C)O)C(=O)N[C@@H](CCCNC(=N)N)C(=O)N[C@@H](CCCNC(=N)N)C(=O)N[C@@H](CCCCN)C(=O)N[C@@H](CC(C)C)C(=O)N[C@@H](CCCNC(=N)N)C(=O)N[C@@H](CCCCN)C(=O)N[C@@H](Cc1c[nH]cn1)C(=O)N[C@@H](CC(N)=O)C(=O)N[C@H]1CSSC[C@@H](C(=O)N[C@@H](CCSC)C(=O)N2CCC[C@H]2C(=O)N[C@@H](CC(C)C)C(=O)N[C@@H](Cc2c[nH]cn2)C(=O)N[C@@H](CO)C(=O)N[C@@H](CCCNC(=N)N)C(=O)N[C@H](C(=O)N2CCC[C@H]2C(=O)N[C@@H](Cc2ccccc2)C(=O)N2CCC[C@H]2C(=O)O)C(C)C)NC(=O)[C@H](CCCNC(=N)N)NC(=O)[C@H](CCCNC(=N)N)NC(=O)[C@H](CCC(N)=O)NC(=O)[C@H](CC(C)C)NC1=O [ELA, Elabela]
potency and efficacy in β-arrestin-2 recruitment, compared with APLN-13 [1]: lower potency and efficacy
cardiac output (CO) ([2]; septic sheep after fluid resuscitation, 2.5 nMol/kg/h, mean ± SEM, n = 6/group): 2.71 ± 0.41 L/min
endpoint circulating levels of lactate, cortisol and Tn T ([2]; septic sheep, at the end of the last d5 infusion, n = 6/group): neither APLN-13 nor ELA infusion impacted
FP-induced decreases of monitored hemodynamic parameters ([2]; septic sheep, incremental doses 0.025 to 12.5 nmol/kg/h): failed to alleviate these decreases
mean arterial pressure (MAP) ([3]; 6.25 nMol/kg/h, mean ± SEM, n = 6/group): 65.4 ± 8.1 mmHg
systemic vascular resistance ([3]; incremental doses 0.025 to 12.5 nmol/kg/h): not significantly impacted
heart rate (HR) and global end-diastolic volume (GEDV) ([3]; incremental doses 0.025 to 12.5 nmol/kg/h, PiCCO): unchanged
potency in Gαi1 activation, compared with APLN-13 [5]: lower potency
affinity for sheep APJ [6]: similar
